Source: patent US12702667B2, “Focal adhesion kinase inhibitor as a therapeutic agent in diabetes” (University of Pittsburgh—Of the Commonwealth System of …, priority 2017, dated 2026)
Entries after “also recorded” stand apart in the source; their conditions may differ.

What was measured:
[1] = test system: pancreatic acinar cells; test: Acinar lineage tracing (tomato-red label, immunofluorescence) in E1aCreERT2;R26-CAG^Tomato mice treated with FAKi; format: in vivo
From the text: Rosa26^CAGTomato (B6.Cg-Gt(Rosa)26Sortm9(CAG-tdTomato)Hze) (Madisen et al., 2010), FAK^fl/fl (Cai et al., 2012), and wild type C57bl/6 mice were purchased from The Jackson Laboratory (Bar Harbor, ME). PdxCre (Criscimanna et al., 2011; Hingorani et al., 2003) mice were obtained from the Mouse Models of Human Cancer Consortium. The E1aCreERT2 strain (Criscimanna et al., 2014; Criscimanna et al., 2011) was generated as previously described (Ji, B. et al., Robust acinar cell transgene expression of CreErT via BAC recombineering, Genesis, 46, 390-395et al (2008)). The FAK-floxed strain (B6; 129X1-Ptk2tm1Lfr/Mmucd) was obtained from the Mutant Mouse Regional Resource Centers (MMRRC).
Immunofluorescence Analysis: Tissue processing, immunostaining, and quantification analysis were performed as previously described (Criscimanna et al., 2011; incorporated by reference in its entirety herein). Imaging was performed using either ZEISS Axiolmager.Z1 or ZEISS LSM 710 microscopes.
Tamoxifen treatment: E1aCreERT;R26-CAG^Tomato mice were injected intraperitoneally with 2 mg tamoxifen on two consecutive days.
(§1) FAKi treatment: FAKi (PF562271; 50 mg/kg) was given orally to mice twice a day for 3 weeks.
Cre-recombinase activity was specifically targeted to the pancreatic acinar cells and their potential progenies. […] The mouse strains are E1aCreERT2;R26-CAG^Tomato, created by crossing the E1aCreERT2 into R26^Tomato mice. Pancreatic acinar cells are exclusively tomato-positive. Mice were treated with PF562271 FAKi. The indicated area in FIG. 2B highlights tomato-negative endocrine islet of Langerhans.

[2] = test system: STZ-treated E1aCreERT2; R26^Tomato mice; test: Induced diabetes mouse model (streptozotocin), blood glucose and islet immunostaining after FAKi treatment; format: in vivo; details: for acinar-derived, insulin-producing cells among beta cells that survived STZ treatment: 7 weeks after STZ treatment and 3 weeks after FAKi treatment
Method: as §1
E1aCreERT2; R26^Tomato mice were treated with streptozotocin (STZ), a widely used compound that kills β-cells and, thus, induces diabetes in mice. […] Thus, in the DMSO-treated cohort, recovery was detected in 3/10 mice. […]
The mice were treated for two additional weeks following blood glucose normalization. The bar embedded in the graph of FIG. 5 indicates the duration of FAKi treatment. […] FAKi (50 mg/kg) was given orally to mice twice a day for 3 weeks.

CN(c1ncccc1CNc1nc(Nc2ccc3c(c2)CC(=O)N3)ncc1C(F)(F)F)S(C)(=O)=O.O=S(=O)(O)c1ccccc1 [PF562271]
conversion of acinar cells into insulin-producing cells (tomato-red labeled insulin-expressing cells) ([1]; 50 mg/kg orally twice a day for three weeks): induces conversion of acinar cells into insulin-producing cells | Glut2 expression of the acinar-derived insulin-positive cells ([1]; FAKi treated): also expressed Glut2 | amylase expression of the acinar-derived insulin-positive cells ([1]; treatment for three weeks): no longer express amylase; also recorded: no longer expressed amylase | location of the acinar-derived insulin-positive cells ([1]; treatment for three weeks): embedded within preexisting islets | acinar-derived, insulin-producing cells among beta cells that survived STZ treatment [2]: could be detected among pre-existing beta-cells | acinar-derived, insulin-producing cells among beta cells that survived STZ treatment ([2]; listed as FAKi): could be detected among pre-existing beta cells | mice whose blood glucose levels decreased to normal levels ([2]; STZ-treated mice, 50 mg/kg orally twice a day for 3 weeks, DMSO cohort recovery 3/10): 9/10 | blood glucose after FAKi treatment ceased ([2]; STZ-treated mice, after 3 weeks of 50 mg/kg orally twice a day): remained at normal levels up to a month | blood glucose ([2]; STZ-treated mice, one week after FAKi treatment (mice treated for 3 weeks)): decrease in blood glucose to normal levels
